These results are taken from patent US20180207190A1, “COMPOSITION CONTAINING NAD FOR PREVENTING AND TREATING OBESITY OR IMPAIRED GLUCOSE TOLERANCE” (UNIVERSITY OF ULSAN FOUNDATION FOR INDUSTRY COOPERATION, priority 2015, published 2018).

Series [1] deals with C57BL/6 mice. The series can be described thus: Feeding study, single intravascular (ICV, third ventricle cannula) administration: food intake and body weight. The class given is in vivo, mouse. Here is the method:
(§1) Mature male C57BL/6 mice were purchased from ORIENT BIO Inc. (Gyeonggi-do, Republic of Korea). Unless stated otherwise, the mice were freely fed a standard diet (Cargill Agri Purina, Inc., Seoul, Republic of Korea). To establish a diet-induced obesity (DIO) model, the mice were fed a HFD (60% fats, Research Diet Co., New Brunswick, N.J.) for 20 weeks. The animals were raised at a controlled temperature (22±1° C.) under a 12-hour light/dark cycle (a light condition from 08:00 a.m. to 8:00 p.m.) For experiments of single administration of NAD+ and NMN, 8-week-old mice were fasted overnight, and NAD+(purchased from Sigma, administered at 0.3, 1 and 3 mg/kg) or NMN (purchased from Sigma, administered at 30, 100, and 300 mg/kg) was intraperitoneally administered to the mice between 09:00 a.m. and 10:00 a.m. For ? chronic NAD+ treatment, NAD+(0.3 mg/kg body weight/day) was intraperitoneally injected once to the mice immediately before the lights went off for 4 weeks.
Permanent 26-gauge stainless steel cannulae were surgically inserted into the third ventricles of mice (a cannula insertion position: 1.8 mm posterior to bregma and 5.0 mm below the sagittal sinus). For surgery, the mice were anesthetized with a mixture of Zoletil and Rumpun (2:1 v/v, 10 μL/g body weight). The exact cannulation positions of the cannulae were confirmed through a positive dipsogenic response after angiotensin II (50 ng) was administered. Only the mice in which the cannulae were precisely positioned were used for data analyses. After a recovery period of 7 days after the surgery, the mice were daily touched for a predetermined time over a week to minimize a stress response to the experiments. Immediately before administration, NAD+ and NMN were dissolved in 0.9% saline and used. The NAD+ and NMN were dissolved in 2 μL of saline for intravascular administration.
(§2) A predetermined dose of NAD+ or NMN was administered to C57BL/6 mice, which were fasted overnight, during an early light phase (09:00 to 11:00) by using a given method. The same amount of a vehicle (i.e., physiological saline) was administered to the control mice.

For series [2], the system named is C57BL/6 mice. The series can be described thus: Feeding study, single intraperitoneal administration: food intake. The class given is in vivo, mouse. The method, then:
as §1, §2

Series [3] has as its system diabetic mice fed a high-fat diet. Conditions: cited from earlier work.
Series [4] relates to HFD-fed obese mice. The series can be described thus: Circadian rhythm of feed intake and physical activity (CLAMS) after chronic IP injection. Format: in vivo, mouse. Conditions: NAD+ 0.3 mg/kg/day IP 4 weeks, CLAMS 24 hours. The method, then:
as §1
The feed intake and physical activity of mice were measured using a comprehensive laboratory animal monitoring system (CLAMS, Columbus Instruments) (n=4 to 5). The light and feeding conditions were maintained under the same conditions as in a home cage. Water was freely provided during an observation period.
Further, an effect of chronic IP injection of NAD+ on the feed intake was verified as follows. To examine a chronic effect of the NAD+ intraperitoneal injection on the feed intake, NAD+(0.3 mg/kg) or saline was administered to the following three groups of mice once a day for 4 weeks: an IP saline-injected group of mice fed the ND, an IP saline-injected group of mice fed the HFD, and an IP NAD+-injected group of mice fed the HFD.
To test an effect of habitual IP injection of NAD+(0.3 mg/kg/day) on mobility in an obese animal model, the mice were divided into three groups, that is, an IP saline-injected group of mice fed the ND, an IP saline-injected group of mice fed the HFD, and an IP NAD+-injected group of mice fed the HFD and the mobility thereof was evaluated.

For series [5], the system named is cultured neuronal cells, astrocytes, and cardiac myocytes. The conditions noted are these: cells treated with NAD+; cited from earlier work.
Series [6] deals with C57BL/6 mice. The series can be described thus: Oral glucose tolerance test. The class given is in vivo, mouse. Conditions: NAD+ 0.3, 1, 3 mg/kg single IP 30 minutes before oral glucose 2 g/kg, overnight-fasted normal mice. The method, then: For an oral glucose tolerance test, the mice were fasted overnight, 2 g/kg (body weight) of glucose was orally administered (by oral gavage), and blood glucose levels were measured immediately before oral administration (0 minute) and 15, 30, 60, and 120 minutes after the oral administration. 30 minutes prior to glucose administration, NAD+(0.3, 1 and 3 mg/kg) was intraperitoneally administered.
To examine an effect of single IP injection of NAD+ on the glucose tolerance, an oral glucose tolerance test was performed on ND-fed C57BL/6 mice that were fasted overnight. A single IP dose of NAD+(0.3, 1 and 3 mg/kg) was administered to the mice, and glucose (2 g/kg) was orally administered thereto after 30 minutes. Thereafter, blood glucose levels were measured at 15, 30, 60, and 120 minutes.

The next series relates to rodents. The conditions noted are these: exogenous NAD+ administration; cited from earlier work.
Series [7] concerns HFD-fed obese mice. Put plainly: Chronic IP injection for 4 weeks: body weight and side effects in ND-fed and HFD-fed (diet-induced obesity) mice. The class given is in vivo, mouse. The conditions noted are these: for body weight vs saline-injected group: NAD+ 0.3 mg/kg/day IP once a day for 4 weeks, 0.3 mg/kg/day. The method, then:
as §1
Additionally, an effect of chronic IP injection of NAD+ on the body weight was also examined (FIG. 4). The mice were divided into four groups (a group of ND-fed mice to which saline was IP injected, a group of ND-fed mice to which NAD+ was IP injected, a group of HFD-fed mice to which saline was IP injected, and a group of HFD-fed mice to which NAD+ was IP injected), and NAD+ was intraperitoneally administered to the mice at a dose of 0.3 mg/kg/day once a day for 4 weeks.

For series [8] the following is noted: NR supplementation; cited from earlier work.
In the next series the target is NQO1 (Homo sapiens, UniProt P15559). The conditions noted are these: cited from earlier work.
NQO1, sequence (P15559 whole entry, species assumed): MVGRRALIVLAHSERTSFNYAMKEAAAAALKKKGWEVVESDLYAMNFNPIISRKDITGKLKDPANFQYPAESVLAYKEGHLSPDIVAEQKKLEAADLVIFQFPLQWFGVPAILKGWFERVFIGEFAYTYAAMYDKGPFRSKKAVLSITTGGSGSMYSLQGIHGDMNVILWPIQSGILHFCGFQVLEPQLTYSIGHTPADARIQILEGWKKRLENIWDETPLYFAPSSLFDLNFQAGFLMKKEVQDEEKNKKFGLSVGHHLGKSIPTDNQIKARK

Entries after “also recorded” stand apart in the source; their conditions may differ.

Turning to `NC(=O)c1ccc[n+]([C@@H]2O[C@H](COP(=O)([O-])O)[C@@H](O)[C@H]2O)c1` [NMN, nicotinamide mononucleotide, reference compound], in the series on C57BL/6 mice [1] (NMN 10 pmol single ICV, 24 hours after injection), the “food intake vs saline” value is given as “reduced; also recorded: much lower level of food intake”. For the same compound, the “change in body weight for 24 hours vs control” value with C57BL/6 mice [1] (NMN 10, 100, 1,000 pmol single ICV) was “no significant difference; also recorded: did not cause a change in body weight”. Further, the “food intake at 4 hours vs saline” value in the series with C57BL/6 mice [2] (NMN 300 mg/kg single IP) is reported as “significantly reduced level of food intake”. Besides, in the series with C57BL/6 mice [2] (NMN 30, 100, 300 mg/kg single IP), the “food intake at 24 hours vs control” value is reported as “did not have a reduced food intake; also recorded: not maintained; also recorded: no decrease in food intake”. Moreover, the “NAD+ level in the liver, adipose tissues, and skeletal muscles” value in [3] (IP NMN, HFD-fed diabetic mice) is “successfully increases”. The glucose tolerance entry in series [3] (NMN, diabetic mice) is given as “restores damaged glucose tolerance”.

On to `NC(=O)c1ccc[n+]([C@@H]2O[C@H](COP(=O)([O-])OP(=O)(O)OC[C@H]3O[C@@H](n4cnc5c(N)ncnc54)[C@H](O)[C@@H]3O)[C@@H](O)[C@H]2O)c1` [NAD+, nicotinamide adenine dinucleotide], for which the “weight gain / body weight for 24 hours vs saline” value in the series on C57BL/6 mice [1] (NAD+ 0.2 pmol single intracerebroventricular (ICV)) is given as “significantly suppressed; also recorded: reduced the body weight; also recorded: significantly reduced level of weight gain”. Moreover, the “food intake vs saline” value in the series with C57BL/6 mice [1] (NAD+ 0.2, 1, 2 pmol single intracerebroventricular (ICV), overnight-fasted mice, observed for 24 hours, effect maintained at 24 hours) is reported as “significantly reduced; also recorded: reduced food intake”. Further, in the series on C57BL/6 mice [1] (NAD+ single intracerebroventricular (ICV)), the “time at which decrease in food intake started after administration” value worked out at 2 h. Further, in the series on HFD-fed obese mice [4], the daytime feed intake entry is “significantly reduced” and the nighttime feed intake entry is on record as “did not significantly reduce”. In the series with HFD-fed obese mice [4] (0.3 mg/kg/day), the food intake frequency entry is recorded as “suppressed a high food intake frequency of the obese mice to a normal mouse level; also recorded: significantly reduced” and the “nighttime physical activity (mobility)” value was “remarkably restored”. Further, the “food intake at 4 hours vs saline” value in the series on C57BL/6 mice [2] (NAD+ 1 mg/kg single IP) was “significantly reduced”. Besides, the “food intake at 4 hours vs saline” value with C57BL/6 mice [2] (NAD+ 0.3, 1, 3 mg/kg single IP, overnight-fasted mice) is reported as “significantly reduced”. Moreover, the “apoptosis induced by oxidative stress” value in series [5] was “reduced”. Besides, the “blood glucose level at 15 and 30 minutes after glucose administration vs saline” value in the series with C57BL/6 mice [6] is reported as “significantly reduced; also recorded: much lower blood glucose level”. The “ischemic brain damage and cardiomegaly” value with rodents is given as “improves”. Also, the “body weight vs saline-injected group” value with HFD-fed obese mice [7] (HFD-fed obese mice) is “significantly reduced; also recorded: significant effect; also recorded: significant decrease”. Besides, the “side effects of chronic injection” value in the series with HFD-fed obese mice [7] (NAD+ 0.3 mg/kg/day IP, 4 weeks) is “did not cause any notable side effects”. The “body weight vs saline-injected group” value in the series with HFD-fed obese mice [7] (ND-fed normal mice) was “did not induce a weight loss; also recorded: not significantly different”.

As to `NC(=O)c1ccc[n+]([C@@H]2O[C@H](CO)[C@@H](O)[C@H]2O)c1` [NR, nicotinamide riboside], in series [8], the “NAD+ level in peripheral tissues such as liver and skeletal muscles” value is given as “increases”; the “NAD+ level in the brain” value is recorded as “does not increase”.

Regarding `CC1(C)CCC2=C(O1)c1ccccc1C(=O)C2=O` [βL], at NQO1, the “NAD+, NAD+/NADH, and NADP+/NADPH ratios” value is on record as “increase”.
